This test concerns NQO1. Briefly: qPCR of NQO1 transcription in IMR-32 cells. Format: cell-based, human. The procedure:
IMR-32 cells (1×10^6 cells/well) were seeded in 6-well plates one day before treatment. Cells were treated with variable concentrations of purified compounds 1-4 for 12 h. Total RNA was extracted with the RNeasy Mini Kit (Qiagen). cDNA was synthesized from 2 μg of total RNA by using SuperScript II Reverse Transcriptase (Invitrogen) and Oligo(dT)12-18 primer (Invitrogen). Real-time PCR was performed in triplicate using GAPDH expression as internal control for normalization.
(In general: Quantitative PCR measures a nucleic acid by following its amplification.)

Molecules are shown by their SMILES.

As for `CCC(Cl)C(O)C(O)/C=C/C=C/C=O` (centres unmarked) [Compound 4, 8-chloro-6,7-dihydroxydeca-2,4-dienal], where the note is “20 μg/mL, 12 h”, the “activation of NQO1 transcription” value is recorded as 6.4 fold.

For the molecule `CC(C)(C)c1cc(O)ccc1O` [tBHQ, Tert-butylhydroquinone], the “activation of NQO1 transcription” value (positive control under identical conditions) is listed as 5.9 fold.

For the origin of these results see patent US9730970B2, “Seaweed extracts, unsaturated aldehydes, and methods of treatment” (University of Florida Research Foundation, Inc., priority 2013, dated 2017).
